Results as given in patent US12662479B2 (Foghorn Therapeutics Inc., priority 2020, dated 2026).

Tests used:
[1] = target: T1, HiBit-BRG1 fusion protein (Homo sapiens, UniProt P51532); experiment: HiBiT-BRG1 cell-based degradation assay (Nano-Glo HiBiT Lytic Detection, 24 h); details: HeLa cells expressing HiBit-BRG1 and LgBit; for DC50: read-out: BRG1 HiBit Degradation IC50; for Dmax: HeLa, top dose 30 μM, read-out: BRG1 HiBit Degradation Maximum measured
T1 construct: expressed in transfected cells
Outline: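 Degradation is scaled from DMSO-treated cells (0%) to cells given 2 μM of a known BRM/BRG1 degrader (100%). HeLa cells stably carrying HiBiT-BRG1 plus LgBiT (5000/well) were lysed with Nano-Glo HiBiT detection reagent, shaken 10 min at RT, and luminescence read.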

HiBit-BRM fusion protein = target: T2, HiBit-BRM fusion protein (Homo sapiens, UniProt P51531); experiment: HiBiT-BRM cell-based degradation assay (Nano-Glo HiBiT Lytic Detection, 24 h); details: HeLa cells expressing HiBiT-BRM; for DC50: read-out: BRM HiBit Degradation IC50; for BRM HiBit Degradation Maximum measured: top dose 30 μM
T2 construct: expressed in transfected cells
Outline: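 Percent BRM loss was derived from HiBiT luminescence relative to DMSO-treated cells and cells given 2 μM of a known BRM/BRG1 degrader. Treatment lasted 24 h in HiBiT-BRM HeLa cells, with a top final concentration of 30 μM.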

T1 sequence (P51532 whole entry, the tested form may be a part): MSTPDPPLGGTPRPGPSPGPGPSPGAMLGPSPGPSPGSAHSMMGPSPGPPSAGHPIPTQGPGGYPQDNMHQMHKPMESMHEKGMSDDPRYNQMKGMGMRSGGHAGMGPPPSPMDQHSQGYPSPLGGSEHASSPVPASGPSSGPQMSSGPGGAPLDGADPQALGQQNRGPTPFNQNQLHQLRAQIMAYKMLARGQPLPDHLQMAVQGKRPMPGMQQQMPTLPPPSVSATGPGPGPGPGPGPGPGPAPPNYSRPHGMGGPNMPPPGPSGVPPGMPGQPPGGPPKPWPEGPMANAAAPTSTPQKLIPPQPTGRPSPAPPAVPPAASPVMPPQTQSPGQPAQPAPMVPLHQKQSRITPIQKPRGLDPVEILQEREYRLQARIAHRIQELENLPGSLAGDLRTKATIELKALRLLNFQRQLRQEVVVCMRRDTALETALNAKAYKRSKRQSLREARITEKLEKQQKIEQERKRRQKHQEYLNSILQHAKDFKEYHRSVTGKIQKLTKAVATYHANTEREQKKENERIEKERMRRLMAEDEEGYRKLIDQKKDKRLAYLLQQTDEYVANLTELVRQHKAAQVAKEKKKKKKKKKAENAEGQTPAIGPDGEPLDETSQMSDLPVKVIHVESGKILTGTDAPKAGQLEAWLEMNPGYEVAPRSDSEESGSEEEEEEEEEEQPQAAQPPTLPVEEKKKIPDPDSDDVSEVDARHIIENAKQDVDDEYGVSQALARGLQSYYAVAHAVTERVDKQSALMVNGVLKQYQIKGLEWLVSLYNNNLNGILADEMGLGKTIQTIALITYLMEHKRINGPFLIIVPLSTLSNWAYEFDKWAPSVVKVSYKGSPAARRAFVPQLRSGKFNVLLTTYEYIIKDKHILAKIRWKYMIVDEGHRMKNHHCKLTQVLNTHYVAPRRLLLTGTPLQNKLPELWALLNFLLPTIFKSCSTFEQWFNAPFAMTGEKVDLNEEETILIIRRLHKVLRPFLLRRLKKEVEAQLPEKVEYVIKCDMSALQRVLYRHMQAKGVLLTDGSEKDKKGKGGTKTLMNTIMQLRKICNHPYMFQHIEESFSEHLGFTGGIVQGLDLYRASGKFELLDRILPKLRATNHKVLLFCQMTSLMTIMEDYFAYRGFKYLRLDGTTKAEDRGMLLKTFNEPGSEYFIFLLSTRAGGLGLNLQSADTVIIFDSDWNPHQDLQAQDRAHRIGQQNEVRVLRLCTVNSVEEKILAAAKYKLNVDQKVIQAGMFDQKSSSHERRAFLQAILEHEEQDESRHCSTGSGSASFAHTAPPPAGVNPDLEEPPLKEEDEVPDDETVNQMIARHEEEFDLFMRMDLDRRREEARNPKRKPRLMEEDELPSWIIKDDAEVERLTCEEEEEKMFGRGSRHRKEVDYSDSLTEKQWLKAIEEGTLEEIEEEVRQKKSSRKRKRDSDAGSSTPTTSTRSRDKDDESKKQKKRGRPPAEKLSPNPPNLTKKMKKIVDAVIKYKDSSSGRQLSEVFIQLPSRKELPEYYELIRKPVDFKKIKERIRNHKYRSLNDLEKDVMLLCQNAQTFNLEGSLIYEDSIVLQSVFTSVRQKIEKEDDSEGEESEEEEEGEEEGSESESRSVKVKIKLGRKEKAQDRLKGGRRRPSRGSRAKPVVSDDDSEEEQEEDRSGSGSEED
T2 sequence (P51531 whole entry, the tested form may be a part): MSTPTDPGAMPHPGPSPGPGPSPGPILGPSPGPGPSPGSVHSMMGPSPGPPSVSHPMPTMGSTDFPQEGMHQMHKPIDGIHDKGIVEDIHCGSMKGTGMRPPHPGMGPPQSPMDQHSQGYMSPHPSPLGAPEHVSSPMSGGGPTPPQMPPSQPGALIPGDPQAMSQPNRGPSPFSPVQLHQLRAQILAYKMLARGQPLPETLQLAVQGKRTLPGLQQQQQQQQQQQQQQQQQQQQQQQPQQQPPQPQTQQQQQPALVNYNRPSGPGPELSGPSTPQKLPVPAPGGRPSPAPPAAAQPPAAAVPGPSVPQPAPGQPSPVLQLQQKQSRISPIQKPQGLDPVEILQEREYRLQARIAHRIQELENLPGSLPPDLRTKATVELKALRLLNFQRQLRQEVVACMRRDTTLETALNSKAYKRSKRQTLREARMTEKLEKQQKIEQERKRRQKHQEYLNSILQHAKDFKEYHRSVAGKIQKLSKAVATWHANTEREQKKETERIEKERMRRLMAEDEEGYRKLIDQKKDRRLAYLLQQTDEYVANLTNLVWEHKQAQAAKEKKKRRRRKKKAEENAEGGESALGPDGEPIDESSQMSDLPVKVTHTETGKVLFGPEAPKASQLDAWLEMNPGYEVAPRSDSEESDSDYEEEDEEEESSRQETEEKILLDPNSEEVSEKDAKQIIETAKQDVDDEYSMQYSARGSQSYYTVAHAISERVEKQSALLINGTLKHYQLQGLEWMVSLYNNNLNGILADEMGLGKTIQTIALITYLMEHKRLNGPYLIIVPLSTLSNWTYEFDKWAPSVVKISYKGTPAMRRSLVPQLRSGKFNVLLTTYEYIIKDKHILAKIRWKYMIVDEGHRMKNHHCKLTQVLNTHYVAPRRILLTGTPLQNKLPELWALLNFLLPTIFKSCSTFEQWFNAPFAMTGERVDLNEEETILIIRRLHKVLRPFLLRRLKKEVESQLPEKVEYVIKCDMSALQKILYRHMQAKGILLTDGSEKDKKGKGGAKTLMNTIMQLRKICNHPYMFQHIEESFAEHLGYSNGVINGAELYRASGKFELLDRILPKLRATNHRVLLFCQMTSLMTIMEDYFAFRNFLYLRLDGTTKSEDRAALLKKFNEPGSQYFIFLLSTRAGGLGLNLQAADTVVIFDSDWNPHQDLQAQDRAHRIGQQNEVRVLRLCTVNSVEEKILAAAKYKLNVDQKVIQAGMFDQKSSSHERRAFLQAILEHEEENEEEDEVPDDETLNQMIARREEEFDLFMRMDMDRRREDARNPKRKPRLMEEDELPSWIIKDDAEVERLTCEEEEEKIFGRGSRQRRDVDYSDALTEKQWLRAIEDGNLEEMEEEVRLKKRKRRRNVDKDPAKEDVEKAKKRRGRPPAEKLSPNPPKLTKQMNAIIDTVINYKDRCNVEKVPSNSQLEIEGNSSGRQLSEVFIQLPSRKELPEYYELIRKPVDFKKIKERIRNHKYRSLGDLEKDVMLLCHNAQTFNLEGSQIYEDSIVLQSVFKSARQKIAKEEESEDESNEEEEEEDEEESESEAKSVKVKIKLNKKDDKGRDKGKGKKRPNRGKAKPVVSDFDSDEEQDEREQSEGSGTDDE

| DC50 [1] | Dmax [1] | DC50 (HiBit-BRM fusion protein) | BRM HiBit Degradation Maximum measured (HiBit-BRM fusion protein) | SMILES |
| --- | --- | --- | --- | --- |
| > 10 µM | < 50% | > 10 µM | C (‘C’ = Maximum degradation <50%) | CS(=O)(=O)n1ccc(C(=O)N[C@@H](CCCCNC(=O)C2CC2CNC(=O)COc2cccc3c2C(=O)N(C2CCC(=O)NC2=O)C3=O)C(=O)Nc2nc(-c3ccccc3)cs2)c1 (stereo partly drawn) [Compound 284, (2S)-6-([2-[(2-[[2-(2,6-dioxopiperidin-3-yl)-1,3-dioxoisoindol-4-yl]oxy]acetamido)methyl]cyclopropyl]formamido)-2-[(1-methanesulfonylpyrrol-3-yl)formamido]-N-(4-phenyl-1,3-thiazol-2-yl)hexanamide] |
| > 10 µM | < 50% | > 10 µM | C (‘C’ = Maximum degradation <50%) | CS(=O)(=O)n1ccc(C(=O)N[C@@H](CCOCCCC(=O)NCCOc2cccc(OCCNc3ccc4c(c3)C(=O)N(C3CCC(=O)NC3=O)C4=O)c2)C(=O)Nc2nc(-c3ccccc3)cs2)c1 (stereo partly drawn) [Compound 285, (2S)-4-[3-([2-[3-(2-[[2-(2,6-dioxopiperidin-3-yl)-1,3-dioxoisoindol-5-yl]amino]ethoxy)phenoxy]ethyl]carbamoyl)propoxy]-2-[(1-methanesulfonylpyrrol-3-yl)formamido]-N-(4-phenyl-1,3-thiazol-2-yl)butanamide] |
| > 10 µM | < 50% | > 10 µM | C (‘C’ = Maximum degradation <50%) | CS(=O)(=O)n1ccc(C(=O)N[C@@H](CCOCCCC(=O)NCCNc2ccc3c(c2)C(=O)N(C2CCC(=O)NC2=O)C3=O)C(=O)Nc2nc(-c3ccccc3)cs2)c1 (stereo partly drawn) [Compound 286, (2S)-4-[3-[(2-[[2-(2,6-dioxopiperidin-3-yl)-1,3-dioxoisoindol-5-yl]amino]ethyl)carbamoyl]propoxy]-2-[(1-methanesulfonylpyrrol-3-yl)formamido]-N-(4-phenyl-1,3-thiazol-2-yl)butanamide] |
| > 10 µM | < 50% | > 10 µM | C (‘C’ = Maximum degradation <50%) | CS(=O)(=O)n1ccc(C(=O)N[C@@H](CCCCNC(=O)CCOCCOCCOc2ccc3c(c2)C(=O)N(C2CCC(=O)NC2=O)C3=O)C(=O)Nc2nc(-c3ccccc3)cs2)c1 (stereo partly drawn) [Compound 291, (2S)-6-[3-[2-(2-[[2-(2,6-dioxopiperidin-3-yl)-1,3-dioxoisoindol-5-yl]oxy]ethoxy)ethoxy]propanamido]-2-[(1-methanesulfonylpyrrol-3-yl)formamido]-N-(4-phenyl-1,3-thiazol-2-yl)hexanamide] |

More lines, now with the values behind:

| SMILES | DC50 [1] | Dmax [1] | DC50 (HiBit-BRM fusion protein) | BRM HiBit Degradation Maximum measured (HiBit-BRM fusion protein) |
| --- | --- | --- | --- | --- |
| CS(=O)(=O)n1ccc(C(=O)N[C@@H](CCOCCCC(=O)NCCCCCNc2ccc3c(c2)C(=O)N(C2CCC(=O)NC2=O)C3=O)C(=O)Nc2nc(-c3ccccc3)cs2)c1 (stereo partly drawn) [Compound 287, (2S)-4-[3-[(5-[[2-(2,6-dioxopiperidin-3-yl)-1,3-dioxoisoindol-5-yl]amino]pentyl)carbamoyl]propoxy]-2-[(1-methanesulfonylpyrrol-3-yl)formamido]-N-(4-phenyl-1,3-thiazol-2-yl)butanamide] | > 10 µM | < 50% | > 10 µM | C (‘C’ = Maximum degradation <50%) |
| CS(=O)(=O)n1ccc(C(=O)N[C@@H](CCCCNC(=O)CCOCCOCCOc2cccc3c2C(=O)N(C2CCC(=O)NC2=O)C3=O)C(=O)Nc2nc(-c3ccccc3)cs2)c1 (stereo partly drawn) [Compound 288, (2S)-6-[3-[2-(2-[[2-(2,6-dioxopiperidin-3-yl)-1,3-dioxoisoindol-4-yl]oxy]ethoxy)ethoxy]propanamido]-2-[(1-methanesulfonylpyrrol-3-yl)formamido]-N-(4-phenyl-1,3-thiazol-2-yl)hexanamide] | > 10 µM | < 50% | > 10 µM | C (‘C’ = Maximum degradation <50%) |
| CS(=O)(=O)n1ccc(C(=O)N[C@@H](CCCCNC(=O)CCCCCCCOc2cccc3c2C(=O)N(C2CCC(=O)NC2=O)C3=O)C(=O)Nc2nc(-c3ccccc3)cs2)c1 (stereo partly drawn) [Compound 289, 8-[[2-(2,6-dioxopiperidin-3-yl)-1,3-dioxoisoindol-4-yl]oxy]-N-[(5S)-5-[(1-methanesulfonylpyrrol-3-yl)formamido]-5-[(4-phenyl-1,3-thiazol-2-yl)carbamoyl]pentyl]octanamide] | > 10 µM | < 50% | > 10 µM | C (‘C’ = Maximum degradation <50%) |
| CS(=O)(=O)n1ccc(C(=O)N[C@@H](CCCCNC(=O)CCCCCCOc2cccc3c2C(=O)N(C2CCC(=O)NC2=O)C3=O)C(=O)Nc2nc(-c3ccccc3)cs2)c1 (stereo partly drawn) [Compound 290, 7-[[2-(2,6-dioxopiperidin-3-yl)-1,3-dioxoisoindol-4-yl]oxy]-N-[(5S)-5-[(1-methanesulfonylpyrrol-3-yl)formamido]-5-[(4-phenyl-1,3-thiazol-2-yl)carbamoyl]pentyl]heptanamide] | > 10 µM | < 50% | > 10 µM | C (‘C’ = Maximum degradation <50%) |
| CS(=O)(=O)n1ccc(C(=O)N[C@@H](CCCCNC(=O)CCOCCOCCNc2ccc3c(c2)C(=O)N(C2CCC(=O)NC2=O)C3=O)C(=O)Nc2nc(-c3ccccc3)cs2)c1 (stereo partly drawn) [Compound 292, (2S)-6-[3-[2-(2-[[2-(2,6-dioxopiperidin-3-yl)-1,3-dioxoisoindol-5-yl]amino]ethoxy)ethoxy]propanamido]-2-[(1-methanesulfonylpyrrol-3-yl)formamido]-N-(4-phenyl-1,3-thiazol-2-yl)hexanamide] | > 10 µM | < 50% | > 10 µM | C (‘C’ = Maximum degradation <50%) |
| CS(=O)(=O)n1ccc(C(=O)N[C@@H](CCCCNC(=O)CCN2CC3(C2)CN(c2ccc4c(c2)C(=O)N(C2CCC(=O)NC2=O)C4=O)C3)C(=O)Nc2nc(-c3ccccc3)cs2)c1 (stereo partly drawn) [Compound 294, (2S)-6-(3-[6-[2-(2,6-dioxopiperidin-3-yl)-1,3-dioxoisoindol-5-yl]-2,6-diazaspiro[3.3]heptan-2-yl]propanamido)-2-[(1-methanesulfonylpyrrol-3-yl)formamido]-N-(4-phenyl-1,3-thiazol-2-yl)hexanamide] | > 10 µM | < 50% | > 10 µM | C (‘C’ = Maximum degradation <50%) |
| CS(=O)(=O)n1ccc(C(=O)N[C@@H](CCCCNC(=O)CCCCOc2cccc3c2C(=O)N(C2CCC(=O)NC2=O)C3=O)C(=O)Nc2nc(-c3ccccc3)cs2)c1 (stereo partly drawn) [Compound 295, (2S)-6-(5-[[2-(2,6-dioxopiperidin-3-yl)-1,3-dioxoisoindol-4-yl]oxy]pentanemido)-2-[(1-methanesulfonylpyrrol-3-yl)formamido]-N-(4-phenyl-1,3-thiazol-2-yl)hexanamide] | > 10 µM | < 50% | > 10 µM | C (‘C’ = Maximum degradation <50%) |
| CS(=O)(=O)n1ccc(C(=O)N[C@@H](CCCCNC(=O)CCCCCCCCCCNc2cccc3c2C(=O)N(C2CCC(=O)NC2=O)C3=O)C(=O)Nc2nc(-c3ccccc3)cs2)c1 (stereo partly drawn) [Compound 296, 11-[[2-(2,6-dioxopiperidin-3-yl)-1,3-dioxoisoindol-4-yl]amino]-N-[(5S)-5-[(1-methanesulfonylpyrrol-3-yl)formamido]-5-[(4-phenyl-1,3-thiazol-2-yl)carbamoyl]pentyl]undecanamide] | > 10 µM | < 50% | > 10 µM | C (‘C’ = Maximum degradation <50%) |
| CS(=O)(=O)n1ccc(C(=O)N[C@@H](CCCCNC(=O)CCN2CCN(c3ccc4c(c3)C(=O)N(C3CCC(=O)NC3=O)C4=O)CC2)C(=O)Nc2nc(-c3ccccc3)cs2)c1 (stereo partly drawn) [Compound 297, N-((2S)-6-(3-(4-(2-(2,6-dioxopiperidin-3-yl)-1,3-dioxoisoindolin-5-yl)piperazin-1-yl)propanamido)-1-oxo-1-((4-phenylthiazol-2-yl)amino)hexan-2-yl)-1-(methylsulfonyl)-1H-pyrrole-3-carboxamide] | > 10 µM | < 50% | > 10 µM | C (‘C’ = Maximum degradation <50%) |
